Measured values published in US20040102622A1, “Modulation of hepatocyte growth factor receptor expression” (Isis Pharmaceuticals Inc., priority 2002, published 2004).
Strand notation (5' to 3'): a small letter for the sugar, then the base; units joined by * are phosphorothioate-linked, units joined directly phosphodiester-linked; [ ] holds rarer units or linkages, { } end groups; capitals alone tell only the bases. e = 2'-O-(2-methoxyethyl) (MOE); [5mC] = 5-methylcytosine; d = 2'-deoxy (DNA)

What follows are substances tested on human hepatocyte growth factor receptor mRNA (assay: not given). Conditions: not given.
Wherever % INHIB (inhibition of human hepatocyte growth factor receptor mRNA levels) is given: test concentration or dose not given here.

Substance	inhibition of human hepatocyte growth factor receptor expression
ISIS 155097: 2′-MOE gapmer, phosphorothioate backbone, sequence cctcggtcagaaattgggaa (antisense CCTCGGTCAGAAATTGGGAA; all phosphorothioate, sugars by position and methylation of C not given here; 2'-MOE gapmer)	at least 35%
ISIS 155098: 2′-MOE gapmer, phosphorothioate backbone, sequence tcagaagtgtcctattaaag (antisense TCAGAAGTGTCCTATTAAAG; all phosphorothioate, sugars by position and methylation of C not given here; 2'-MOE gapmer)	at least 35%
ISIS 155099: 2′-MOE gapmer, phosphorothioate backbone, sequence caggtttttcccaacacctg (antisense CAGGTTTTTCCCAACACCTG; all phosphorothioate, sugars by position and methylation of C not given here; 2'-MOE gapmer)	at least 35%

The substances below were run on human hepatocyte growth factor receptor mRNA (assay: Inhibition of human hepatocyte growth factor receptor mRNA levels in T-24 cells, quantitative real-time PCR). Conditions: averages from three experiments.

Substance	% INHIB (inhibition of human hepatocyte growth factor receptor mRNA levels) [%]
209529 (antisense e[5mC]*e[5mC]*e[5mC]*eA*eG*d[5mC]*d[5mC]*dA*d[5mC]*dA*dT*dA*dT*dG*dG*eT*e[5mC]*eA*eG*e[5mC]) [compound 209529]	87
209530 (antisense eT*eT*eA*e[5mC]*eA*dG*dG*dA*dT*d[5mC]*d[5mC]*dA*d[5mC]*dA*dT*eA*eG*eG*eA*eG) [compound 209530]	81
209531 (antisense eT*eA*eA*eG*eT*d[5mC]*dA*dA*dT*dT*dT*dT*d[5mC]*dA*dA*eT*eT*eT*eA*eA) [compound 209531]	13
209532 (antisense eA*eG*eT*eA*e[5mC]*dT*dA*dA*dT*dA*dA*dA*dA*dG*dA*eT*eT*eT*eG*eG) [compound 209532]	0
209533 (antisense e[5mC]*eA*e[5mC]*e[5mC]*eA*d[5mC]*dT*dG*dG*d[5mC]*dA*dA*dA*dG*d[5mC]*eA*eA*eA*eA*eT) [compound 209533]	47
209534 (antisense eA*eG*e[5mC]*eA*eT*dT*dA*d[5mC]*dT*dT*d[5mC]*dA*dT*dA*dT*eA*eA*eG*eG*eG) [compound 209534]	35
209535 (antisense eA*eT*eA*eA*e[5mC]*dA*dA*dT*dA*d[5mC]*dA*dA*dG*dT*d[5mC]*e[5mC]*eT*eA*eT*eG) [compound 209535]	39
209536 (antisense e[5mC]*e[5mC]*eT*e[5mC]*e[5mC]*d[5mC]*dA*dT*dA*d[5mC]*dT*dA*dG*dA*dG*eA*eA*eG*eT*eA) [compound 209536]	36
209537 (antisense eA*eG*eA*eG*eG*dT*dT*dT*dA*dT*d[5mC]*dT*dG*d[5mC]*d[5mC]*eA*eA*eA*eA*e[5mC]) [compound 209537]	43
209538 (antisense eT*eG*eT*eG*eA*d[5mC]*dT*dT*dA*d[5mC]*d[5mC]*d[5mC]*dT*dA*dT*eT*eA*eA*eA*eG) [compound 209538]	28
209539 (antisense eG*e[5mC]*eT*eT*e[5mC]*d[5mC]*d[5mC]*d[5mC]*dA*dT*dT*dG*d[5mC]*dT*dG*eT*eT*eA*eG*eG) [compound 209539]	57
209540 (antisense e[5mC]*eA*e[5mC]*eA*eT*d[5mC]*d[5mC]*d[5mC]*dT*dT*dG*dT*dA*dA*dG*eT*eT*eG*eG*eA) [compound 209540]	52
209541 (antisense eA*e[5mC]*e[5mC]*eA*eA*dG*dT*dA*d[5mC]*dT*dG*dT*dA*dA*dG*eA*eG*eA*eG*eG) [compound 209541]	40
209542 (antisense e[5mC]*eT*eT*eG*e[5mC]*dT*dT*d[5mC]*d[5mC]*dA*d[5mC]*dT*dA*dA*dA*eA*eA*eT*eG*eA) [compound 209542]	74
209543 (antisense eG*eA*eT*eG*e[5mC]*d[5mC]*dA*d[5mC]*d[5mC]*dG*dT*dG*d[5mC]*dA*d[5mC]*eT*eG*eT*eG*e[5mC]) [compound 209543]	85
209544 (antisense eT*eA*eA*eT*eA*dG*dT*dG*d[5mC]*dA*dA*dT*dT*dT*dT*eG*eG*e[5mC]*eA*eA) [compound 209544]	82
209545 (antisense eA*eA*eT*eA*e[5mC]*dA*dA*dG*dT*d[5mC]*d[5mC]*dT*dA*dT*dA*eA*eT*eA*eG*eT) [compound 209545]	10
209546 (antisense eA*eA*eT*eT*e[5mC]*dA*dA*dG*dT*dT*dT*dT*dG*dG*dA*e[5mC]*eT*e[5mC]*e[5mC]*eA) [compound 209546]	76
209547 (antisense eT*e[5mC]*e[5mC]*eT*eG*d[5mC]*dT*dT*d[5mC]*dA*dA*dT*dT*dT*d[5mC]*e[5mC]*e[5mC]*eA*eT*eA) [compound 209547]	84
209548 (antisense eT*e[5mC]*eA*eA*eG*dA*dA*dG*d[5mC]*d[5mC]*d[5mC]*dT*d[5mC]*dA*dA*eT*eA*eT*eT*eT) [compound 209548]	67
209549 (antisense e[5mC]*e[5mC]*eT*eG*eA*dG*d[5mC]*dA*dT*dT*dA*d[5mC]*dT*dA*dT*e[5mC]*eT*e[5mC]*eT*eT) [compound 209549]	84
209550 (antisense eT*eG*e[5mC]*eG*e[5mC]*dG*d[5mC]*dT*dG*dT*dA*dG*dT*d[5mC]*d[5mC]*e[5mC]*eA*eG*e[5mC]*eT) [compound 209550]	84
209551 (antisense e[5mC]*eT*eT*eG*eG*dG*dA*dG*dG*d[5mC]*dG*dA*dG*dT*dG*eT*e[5mC]*eA*e[5mC]*e[5mC]) [compound 209551]	0
209552 (antisense eT*eG*eA*eA*eA*d[5mC]*dT*dT*dT*d[5mC]*dT*dA*dG*dG*dT*eG*eG*eA*eG*eA) [compound 209552]	0
209553 (antisense e[5mC]*eG*e[5mC]*e[5mC]*e[5mC]*dA*d[5mC]*dG*dA*d[5mC]*dA*dA*dG*dG*dT*eG*eA*eA*eA*e[5mC]) [compound 209553]	0
209554 (antisense eA*eG*eA*eG*eG*dG*dA*dA*dA*dT*d[5mC]*dG*dG*d[5mC]*d[5mC]*e[5mC]*e[5mC]*e[5mC]*eG*e[5mC]) [compound 209554]	0
209555 (antisense eG*e[5mC]*eG*e[5mC]*eG*d[5mC]*dT*dG*d[5mC]*d[5mC]*d[5mC]*dT*dG*d[5mC]*d[5mC]*eA*eG*eT*eG*eA) [compound 209555]	0
